Source: ChEMBL document CHEMBL1152463 (Antimicrob Agents Chemother, 2008)
Values after ≈ are worked out from the molar mass of the structure shown. Active and inactive are the calls of the source. No cut-off for these calls is given here.

Assays:
Leishmania donovani [1] = experiment: Antileishmanial activity against Leishmania donovani MHOH/IN/1983/AD83 promastigotes assessed as inhibition of calcium uptake; assay type: functional, organism-based
Leishmania donovani [2] = experiment: Antileishmanial activity against Leishmania donovani MHOH/IN/1983/AD83 promastigotes assessed as viability after 2 hrs by MTT assay; assay type: functional, organism-based; settings: MHOH/IN/1983/AD83, 2 h
Leishmania donovani [3] = experiment: Antileishmanial activity against Leishmania donovani MHOH/IN/1983/AD83 promastigotes assessed as increase in caspase 3 like activation in parasite cytosol at 3 to 30 ug/mL after 2 hrs by spectrofluorimetric analysis; assay type: functional, organism-based
Leishmania donovani [4] = experiment: Antileishmanial activity against Leishmania donovani MHOH/IN/1983/AD83 amastigotes infected in BALB/c mouse peritoneal macrophage treated 6 hrs after infection measured after 48 hrs using Giemsa staining relative to control; assay type: functional, organism-based
Leishmania donovani [5] = experiment: Antileishmanial activity against Leishmania donovani MHOH/IN/1983/AD83 amastigotes infected in BALB/c mouse peritoneal macrophage assessed as cell killing at 15 ug/mL treated 6 hrs after infection measured after 48 hrs using Giemsa staining relative to control; assay type: functional
Mus musculus [6] = experiment: Toxicity in BALB/c mouse assessed as liver function at 10 mg/kg, po; assay type: organism-based; set-up: dose 10 mg/kg, route oral; settings: in vivo
Leishmania donovani [7] = experiment: Antileishmanial activity against Leishmania donovani MHOH/IN/1983/AD83 promastigotes assessed as cell killing at 30 ug/mL after 2 hrs by MTT assay relative to control; assay type: functional
Mus musculus [8] = experiment: Toxicity in BALB/c mouse at 10 mg/kg, po; assay type: organism-based; set-up: dose 10 mg/kg, route oral; settings: in vivo
Leishmania donovani [9] = experiment: Antileishmanial activity against Leishmania donovani MHOH/IN/1983/AD83 amastigotes infected in BALB/c mouse peritoneal macrophage at 3 ug/mL treated 6 hrs after infection measured after 48 hrs using Giemsa staining relative to control; assay type: functional
Mus musculus [10] = experiment: Toxicity in BALB/c mouse assessed as kidney function at 10 mg/kg, po; assay type: organism-based; set-up: dose 10 mg/kg, route oral; settings: in vivo
Leishmania donovani [11] = experiment: Antileishmanial activity against Leishmania donovani MHOH/IN/1983/AD83 promastigotes assessed as growth inhibition after 3 days by MTT assay; assay type: functional, organism-based; settings: MHOH/IN/1983/AD83, 72 h
[12] = Toxicity in BALB/c mouse peritoneal macrophage assessed as toxic dose; assay type: cell-based; settings: peritoneal macrophage cell
Mus musculus [13] = experiment: Toxicity in BALB/c mouse assessed as heart function at 10 mg/kg, po; assay type: organism-based; set-up: dose 10 mg/kg, route oral; settings: in vivo
Leishmania donovani [14] = experiment: Antileishmanial activity against Leishmania donovani MHOH/IN/1983/AD83 promastigotes assessed as decrease in rate of oxygen consumption at 30 ug/mL after 2 hrs by polarographically with Clark electrode; assay type: functional; set-up: scale not given: the % may be the effect or the level left

SMILES	Activity (Leishmania donovani [1])	EC50 (Leishmania donovani [2]) [µg/mL]	Activity (Leishmania donovani [3])	Activity (Leishmania donovani [4])	IC50 (Leishmania donovani [4]) [µg/mL]	Activity (Leishmania donovani [5]) [%]	Activity (Mus musculus [6])	Activity (Leishmania donovani [7]) [%]	Activity (Mus musculus [8])	Activity (Leishmania donovani [9]) [%]	Activity (Mus musculus [10])	IC50 (Leishmania donovani [11]) [µg/mL]	Activity [12] [µg/mL]	Activity (Mus musculus [13])	Activity (Leishmania donovani [14]) [%]
COc1ccc(CCN(C)CCCC(C#N)(c2ccc(OC)c(OC)c2)C(C)C)cc1OC (stereo unspecified)	Active	–	–	–	–	–	–	–	–	–	–	–	–	–	–
COc1ccc([C@@H]2Sc3ccccc3N(CCN(C)C)C(=O)[C@@H]2OC(C)=O)cc1	Active	–	–	–	–	–	–	–	–	–	–	–	–	–	–
CCOC(=O)C1=C(COCCN)NC(C)=C(C(=O)OC)C1c1ccccc1Cl (stereo unspecified) [AMLODIPINE]	Active	2 (≈ 4.89 µM)	Active	Dose-dependent effect	2.1 (≈ 5.14 µM)	96.39	Non-toxic	98.76	Non-toxic	>50	Non-toxic	0.085 (≈ 0.208 µM)	> 100	Non-toxic	–
CCOC(=O)C1=C(C)NC(C)=C(C(=O)OCC)C1c1ccccc1/C=C/C(=O)OC(C)(C)C [LACIDIPINE]	Active	2.5 (≈ 5.49 µM)	Active	Dose-dependent effect	2.8 (≈ 6.15 µM)	85.66	Non-toxic	90.5	Non-toxic	>50	Non-toxic	1.45 (≈ 3.18 µM)	150	Non-toxic	78
